Data: patent US7202239B2, “Cyclohexylphenyl carboxamides tocolytic oxytocin receptor antagonists” (Wyeth, priority 2001, dated 2007)

Molecular target: human vasopressin V1a receptor subtype (Homo sapiens, UniProt P37288)
Assay: Vasopressin binding in CHO cell membranes expressing human vasopressin V1a subtype receptors
Conditions: 100 nM, [3H]Manning ligand
From the text: Vasopressin Binding in Chinese Hamster Ovary Cell Membranes Expressing Human Vasopressin V1a Subtype Receptors
Chinese hamster ovary cells (CHO cells) stably transfected with the human vasopressin V1a subtype receptors were either obtained from Biosignal Inc., 1744 rue Williams, Montreal, Quebec, Canada or obtained from M. Thibonnier, Case Western Reserve University School of Medicine, Cleveland, Ohio. A. Passaging and Amplification of Cells: CHO cells transfected with the human vasopressin V1a subtype receptors obtained from M. Thibonnier (pZeoSV vector) are allowed to grow to confluency (approx. >90%) in T-150 flasks under sterile conditions, in a cell culture medium of F-12 Nutrient Mixture (HAM) with L-glutamine (Gibco Cat. # 11765-054) containing 15 mM HEPES (Gibco Cat. 15630-080), 1% antibiotic/antimycotic (add 5 mL 100×, Gibco Cat. 15240-062 per 500 mL F-12), 250 μg/mL Zeocin (add 1.25 mL of 100 mg/mL Invitrogen R-250-01 per 500 mL F-12) and 10% Fetal Bovine Serum (Qualified, heat inactivated, Gibco Cat. # 16140-063). The medium is removed by aspiration and the cells are washed with 10 mL of Hank's Balanced Salt solution (Gibco Cat. # 14175-095). The salt solution is removed by aspiration and the cells are trypsinized with 5 mL of trypsin-EDTA (0.05% trypsin, 0.53 mM EDTA-4Na, Gibco Cat. # 25300-070) for 1 min. The trypsin is removed by aspiration and the cells dislodged by tapping. Cell Culture medium (eg, 30 mL for 1:30 split) is immediately added and mixed well to inactivate trypsin. 1 mL of detached cells is added to new culture flasks containing fresh cell culture medium (eg, into 25 mL per T-150 flask), and mixed gently. The cells are incubated at 37° C. in 5% CO2. The medium is changed at 3 to 4 days interval (or as appropriate). The cells grow to confluency (approx. >75%–95%) within 7–8 days. All steps are done under sterile conditions. B. Membrane Preparation: The cells are washed twice gently with Hank's Balanced Salt solution (e.g,. use 10 mL per T-150 flask). The excess is removed and the cells are bathed for 15–30 min. in an enzyme-free Cell Dissociation Buffer (e.g. use 8 mL Hank's Based, Gibco Cat. # 13150-016 per T-150 flask) until the cells are loosened. The contents are transferred to centrifuge tubes (50 mL) kept in an ice bath. All subsequent steps are done at 4° C. The tubes are centrifuged at 300×g for 15 min (1380 rpm on SORVAL, Model RT6000D, using rotor for the 50 mL tubes). The supernatant is discarded and the cells suspended in homogeneizing buffer(10 mM Tris-HCl containing 0.25 M sucrose and 1 mM EDTA, pH 7.4) ensuring that the volume of the buffer is about ten times the volume of the cell pellet. The cells are pooled into a centrifuge tube (50 mL) and homogenized with Polytron at setting 6 for 10 sec. The homogenate is transferred into a Potter-Elvjehm homogenizer and homogenized with 3 strokes. The homogenate is centrifuged at 1500× g for 10 min at 4° C. (3100 rpm using SORVAL, model RT6000D, using the rotor for 50 mL tubes). The pellet is discarded. The supernatant is centrifuged at 100,000×g for 60 min. at 4° C. (Beckman L8-80M ultracentrifuge; spin at 37,500 rpm with rotor type 70 Ti for 50 mL tubes; 38,000 rpm with type 80Ti for 15 mL tubes; or 35,800 rpm with rotor type 45Ti). The supernantant is discarded and the pellet suspended in 3 to 4 mL of Tris buffer (50 mM TRIS-HCl, pH 7.4). The protein content is estimated by the Bradford or Lowry method. The volume of the membrane suspension is adjusted with the membrane buffer (50 mM Tris-HCl containing 0.1% BSA and 0.1 mM PMSF) to give 3.0 mg/mL (or as appropriate) of protein. The membranes are aliquoted and stored at −70° C. C. […]

Sequence of human vasopressin V1a receptor subtype (P37288 whole entry): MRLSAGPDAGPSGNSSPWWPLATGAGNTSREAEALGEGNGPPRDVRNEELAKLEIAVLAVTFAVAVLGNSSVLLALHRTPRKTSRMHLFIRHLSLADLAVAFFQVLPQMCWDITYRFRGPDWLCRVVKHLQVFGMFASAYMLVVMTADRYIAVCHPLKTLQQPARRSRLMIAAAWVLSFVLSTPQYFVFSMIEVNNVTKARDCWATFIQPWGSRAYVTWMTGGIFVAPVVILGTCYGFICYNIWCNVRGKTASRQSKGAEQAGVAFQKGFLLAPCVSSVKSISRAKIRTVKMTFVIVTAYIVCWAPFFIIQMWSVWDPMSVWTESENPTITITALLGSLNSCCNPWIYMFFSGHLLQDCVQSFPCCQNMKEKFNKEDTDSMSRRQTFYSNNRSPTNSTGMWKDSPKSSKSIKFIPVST

| inhibition at 0.1 µM | V1a % inhibition at 100 nM | SMILES |
| --- | --- | --- |
| -7% | – | COC(=O)c1ccc2c(c1)N(C(=O)c1ccc(C3CCCCC3)cc1)Cc1ccc(C(=O)N3CCN(C)CC3)n1C2.Cl [Example 1, Methyl 10-(4-cyclohexylbenzoyl)-3-[(4-methyl-1-piperazinyl)carbonyl]-10,11-dihydro-5H-pyrrolo[2,1-c][1,4]benzodiazepine-8-carboxylate hydrochloride salt] |
| -19% | – | CN1CCN(C(=O)c2ccc3n2Cc2ccc(C(=O)O)cc2N(C(=O)c2ccc(C4CCCCC4)cc2)C3)CC1 [Example 3, 10-(4-Cyclohexyl-benzoyl)-3-[(4-methyl-1-piperazinyl)carbonyl]-10,11-dihydro-5H-pyrrolo[2,1-c][1,4]benzodiazepine-8-carboxylic acid] |
| 3% | – | CC(C)(C)c1ccc(C(=O)c2ccc3n2Cc2ccccc2N(C(=O)c2ccc(C4CCCCC4)cc2)C3)cc1 [Example 5, [4-(tert-Butyl)phenyl][10-(4-cyclohexyl-benzoyl)-10,11-dihydro-5H-pyrrolo[2,1-c][1,4]benzodiazepin-3-yl]methanone] |
| 4% | – | O=C(c1ccc(C2CCCCC2)cc1)N1Cc2ccc(C(=O)C(Cl)(Cl)Cl)n2Cc2ccccc21 [Example 7, 2,2,2-Trichloro-1-[10-(4-cyclohexyl-benzoyl)-10,11-dihydro-5H-pyrrolo[2,1-c][1,4]benzodiazepin-3-yl]-1-ethanone] |
| – | 31% | Cc1ccccc1C(=O)NNC(=O)c1ccc2n1Cc1ccccc1N(C(=O)c1ccc(C3CCCCC3)cc1)C2 [Example 12, 10-(4-Cyclohexyl-benzoyl)-N′-(2-methylbenzoyl)-10,11-dihydro-5H-pyrrolo[2,1-c][1,4]benzodiazepine-3-carbonyl-hydrazide] |
| – | 35% | O=C(NNC(=O)C1CC1)c1ccc2n1Cc1ccccc1N(C(=O)c1ccc(C3CCCCC3)cc1)C2 [Example 13, 10-(4-Cyclohexyl-benzoyl)-N′-(cyclopropylcarbonyl)-10,11-dihydro-5H-pyrrolo[2,1-c][1,4]benzodiazepine-3-carbonyl-hydrazide] |
| – | 23% | Cc1cccc(C(=O)NNC(=O)c2ccc3n2Cc2ccccc2N(C(=O)c2ccc(C4CCCCC4)cc2)C3)c1 [Example 14, 10-(4-Cyclohexyl-benzoyl)-N′-(3-methyl-benzoyl)-10,11-dihydro-5H-pyrrolo[2,1-c][1,4]benzodiazepine-3-carbonyl-hydrazide] |
| -4% | – | O=C(NNC(=O)c1ccc2n1Cc1ccccc1N(C(=O)c1ccc(C3CCCCC3)cc1)C2)Nc1ccccc1 [Example 15, 2-{[10-(4-Cyclohexyl-benzoyl)-10,11-dihydro-5H-pyrrolo[2,1-c][1,4]benzodiazepin-3-yl]carbonyl}-N-phenyl-1-hydrazinecarboxamide] |
| 21% | – | CN(C)/C=C/C(=O)c1ccc2n1Cc1ccccc1N(C(=O)c1ccc(C3CCCCC3)cc1)C2 [Example 20, (E)-1-[10-(4-Cyclohexyl-benzoyl)-10,11-dihydro-5H-pyrrolo[2,1-c][1,4]benzodiazepin-3-yl]-3-(dimethylamino)-2-propen-1-one] |
| 21% | – | CN(N)C(=O)c1ccc2n1Cc1ccccc1N(C(=O)c1ccc(C3CCCCC3)cc1)C2 [Example 21, 10-(4-Cyclohexyl-benzoyl)-N-methyl-10,11-dihydro-5H-pyrrolo[2,1-c][1,4]benzodiazepine-3-carboxylic acid hydrazide] |
| – | 13% | O=C(O)c1ccc2n1Cc1ccccc1N(C(=O)c1ccc(C3CCCCC3)cc1)C2 [Example 22, 10-(4-Cyclohexyl-benzoyl)-10,11-dihydro-5H-pyrrolo[2,1 c][1,4]benzodiazepine-3-carboxylic acid] |
| 6% | – | Cc1ccccc1N1CCN(C(=O)c2ccc3n2Cc2ccccc2N(C(=O)c2ccc(C4CCCCC4)cc2)C3)CC1 [Example 27, [10-(4-Cyclohexyl-benzoyl)-10,11-dihydro-5H-pyrrolo[2,1-c][1,4]benzodiazepin-3-yl][4-(2-methylphenyl)-1-piperazinyl]-methanone] |

Same assay, conditions: [3H]Manning ligand, value in parentheses

| IC50 | SMILES |
| --- | --- |
| 258 nM | CC(=O)c1ccc2n1Cc1ccccc1N(C(=O)c1ccc(C3CCCCC3)cc1)C2 [Example 6, 1-[10-(4-Cyclohexyl-benzoyl)-10,11-dihydro-5H-pyrrolo[2,1-c][1,4]benzodiazepin-3-yl]-ethanone] |
| 543 nM | NNC(=O)c1ccc2n1Cc1ccccc1N(C(=O)c1ccc(C3CCCCC3)cc1)C2 [Example 8, 10-(4-Cyclohexy-benzoyl)-10,11-dihydro-5H-pyrrolo[2,1-c][1,4]benzodiazepine-3-carboxylic acid hydrazide] |
| 146 nM | CC(=NNC(=O)c1ccc2n1Cc1ccccc1N(C(=O)c1ccc(C3CCCCC3)cc1)C2)N(C)C [Example 9, N′-{[10-(4-Cyclohexyl-benzoyl)-10,11-dihydro-5H-pyrrolo[2,1-c][1,4]benzodiazepin-3-yl]carbonyl}-N,N-dimethylethanehydrazonamide] |
| 366 nM | CN(C)C=NNC(=O)c1ccc2n1Cc1ccccc1N(C(=O)c1ccc(C3CCCCC3)cc1)C2 [Example 10, N′-{[10-(4-Cyclohexyl-benzoyl)-10,11-dihydro-5H-pyrrolo[2,1-c][1.4]benzodiazepin-3-yl]carbonyl}-N,N-dimethylhydrazonoformamide] |
| 367 nM | CC(=O)NNC(=O)c1ccc2n1Cc1ccccc1N(C(=O)c1ccc(C3CCCCC3)cc1)C2 [Example 11, N′-Acetyl-10-(4-cyclohexyl-benzoyl)-10,11-dihydro-5H-pyrrolo[2,1-c][1,4]benzodiazepine-3-carbonyl-hydrazide] |
| 377 nM | NC(=O)c1ccc2n1Cc1ccccc1N(C(=O)c1ccc(C3CCCCC3)cc1)C2 [Example 16, 10-(4-Cyclohexyl-benzoyl)-10,11-dihydro-5H-pyrrolo[2,1-c][1,4]benzodiazepin-3-carboxamide] |
| 306 nM | CN(C)/C=N/C(=O)c1ccc2n1Cc1ccccc1N(C(=O)c1ccc(C3CCCCC3)cc1)C2 [Example 17] |
| 87.5 nM | C/C(=N\C(=O)c1ccc2n1Cc1ccccc1N(C(=O)c1ccc(C3CCCCC3)cc1)C2)N(C)C [Example 18] |
| 880 nM | CN(C)NC(=O)c1ccc2n1Cc1ccccc1N(C(=O)c1ccc(C3CCCCC3)cc1)C2 [Example 19, 10-(4-Cyclohexyl-benzoyl)-N′-N′-dimethyl-10,11-dihydro-5H-pyrrolo[2,1-c][1,4]benzodiazepine-3-carbohydrazide] |
| 635 nM | O=C(c1ccc2n1Cc1ccccc1N(C(=O)c1ccc(C3CCCCC3)cc1)C2)N1CCN(c2ncccn2)CC1 [Example 23] |
| 203 nM | CN1CCN(C(=O)c2ccc3n2Cc2ccccc2N(C(=O)c2ccc(C4CCCCC4)cc2)C3)CC1 [Example 24, [10-(4-Cyclohexyl-benzoyl)-10,11-dihydro-5H-pyrrolo[2,1-c][1,4]benzodiazepin-3-yl](4-methyl-1-piperazinyl)-methanone] |
| 90.4 nM | O=C(c1ccc2n1Cc1ccccc1N(C(=O)c1ccc(C3CCCCC3)cc1)C2)N1CCC(N2CCCC2)CC1 [Example 25, [10-(4-Cyclohexyl-benzoyl)-10,11-dihydro-5H-pyrrolo[2,1-c][1,4]benzodiazepin-3-yl][4-(1-pyrrolidinyl)-1-piperidinyl]methanone] |
| 200 nM | O=C(c1ccc2n1Cc1ccccc1N(C(=O)c1ccc(C3CCCCC3)cc1)C2)N1CCC(N2CCCCC2)CC1 [Example 26, [1,4′]Bipiperidinyl-1′-yl-[10-(4-cyclohexyl-benzoyl)-10,11-dihydro-5H-pyrrolo[2,1-c][1,4]benzodiazepin-3-yl]-methanone] |
